Literature values in patent US20240352056A1, “Improved methods for production of cyclic guanosine-monophosphate analogues” (Mireca Medicines GmbH, priority 2021, published 2024).

Tests used:
[1] = system: cGMP-dependent protein kinase
[2] = system: cAMP-dependent protein kinase
[3] = system: rd1 and rd2 photoreceptors; details: rd1 and rd2 mouse retinitis pigmentosa models, in vitro and in vivo

Row | Structure (SMILES) | binding to cGMP-dependent protein kinase and stimulation of its phosphotransferase activity [1] | antagonism / inhibition of cAMP-dependent protein kinase [2] | antagonism of the activation of the cGMP-dependent protein kinase [1] | further results
1 | O=c1c2nc(Br)n([C@@H]3O[C@@H]4CO[P@@](O)(=S)O[C@H]4[C@H]3O)c2nc2[nH]c(-c3ccccc3)cn12 [1a, Triethylammonium Rp-8-Bromo-β-phenyl-1,N2-ethenoguanosine-3′, 5′-cyclic monophosphorothioate] | – | – | – | activity towards PKG (agonist or antagonist) (PKG): antagonistic activity towards PKG; neuroprotective effects in vivo (photoreceptors): potent neuroprotective effects in vivo
2 | Nc1nc2c(nc(Cl)n2[C@@H]2O[C@@H]3CO[P@@](O)(=S)O[C@H]3[C@H]2O)c(=O)[nH]1 [(Sp)-8-Cl-cGMPS, 8-chloroguanosine 3′, 5′-monophosphorothioate] | stimulated its phosphotransferase activity | – | – | –
3 | Nc1nc2c(nc(Cl)n2[C@@H]2O[C@@H]3CO[P@@](O)(=S)O[C@H]3[C@H]2O)c(=O)[nH]1 [(Rp)-8-Cl-cGMPS, 8-chloroguanosine 3′, 5′-monophosphorothioate] | bound to the enzyme without stimulation of its activity | weak inhibitor | antagonized the activation of the cGMP-dependent protein kinase | selectivity for cGMP-dependent over cAMP-dependent protein kinase [1]: rather selective inhibitor of the cGMP-dependent protein kinase
4 | Nc1nc2c(ncn2[C@@H]2O[C@@H]3COP(O)(=S)O[C@H]3[C@H]2O)c(=O)[nH]1 (stereo partly drawn) [(Sp)-cGMPS, guanosine 3′, 5′-monophosphorothioate] | stimulated its phosphotransferase activity | – | – | –
5 | Nc1nc2c(ncn2[C@@H]2O[C@@H]3COP(O)(=S)O[C@H]3[C@H]2O)c(=O)[nH]1 (stereo partly drawn) [(Rp)-cGMPS, guanosine 3′, 5′-monophosphorothioate] | bound to the enzyme without stimulation of its activity | antagonized the activation of cAMP-dependent protein kinase | antagonized the activation of the cGMP-dependent protein kinase | –
6 | Nc1nc2c(nc(Br)n2[C@@H]2O[C@@H]3COP(O)(=S)O[C@H]3[C@H]2O)c(=O)[nH]1 (stereo partly drawn) [Rp-8-Br-cGMPS] | – | – | – | protection of photoreceptors [3]: protection of rd1 and rd2 photoreceptors
